Measurements taken from US7579350B2, “Scaffolds for α-helix mimicry” (The Scripps Research Institute, priority 2005, dated 2009).

**Q.** Which melting point does the source give for `COC(=O)c1cccc(-c2nnc(-c3ccccc3[N+](=O)[O-])cc2Cc2ccccc2)c1` here?
**A.** 130 °C
